{"source": "ChEMBL document CHEMBL1157430", "about": "“Design, synthesis, and structure-activity relationship study of a novel class of ORL1 receptor antagonists based on N-biarylmethyl spiropiperidine” (Bioorg Med Chem Lett, 2008)", "key": {"[1]": {"experiment": "Displacement of [125I]Tyr14-NC/OFQ from human ORL1 expressed in CHO cells", "assay_type": "cell-based", "settings": "read-out: I50"}, "[2]": {"experiment": "Lipophilicity Log D at pH 7.4 by shake flask method", "assay_type": "physicochemical", "settings": "buffer"}, "Mu-type opioid receptor": {"molecular_target": "Mu-type opioid receptor (Homo sapiens, UniProt P35372)", "sequence (P35372 whole entry)": "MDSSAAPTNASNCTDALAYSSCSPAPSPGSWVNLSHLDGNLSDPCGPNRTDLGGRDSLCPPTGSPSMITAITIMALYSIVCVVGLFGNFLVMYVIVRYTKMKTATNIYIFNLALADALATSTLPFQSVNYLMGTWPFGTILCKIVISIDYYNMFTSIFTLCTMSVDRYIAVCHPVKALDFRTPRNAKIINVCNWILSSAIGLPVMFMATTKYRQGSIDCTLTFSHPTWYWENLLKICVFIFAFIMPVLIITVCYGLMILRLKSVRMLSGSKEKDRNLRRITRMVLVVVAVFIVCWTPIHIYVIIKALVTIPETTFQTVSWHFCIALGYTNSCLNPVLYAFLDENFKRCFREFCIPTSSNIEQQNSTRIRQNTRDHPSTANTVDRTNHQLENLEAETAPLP", "experiment": "Displacement of [3H]diprenorphin from human cloned mu opioid receptor expressed in CHO cells", "assay_type": "cell-based"}, "[3]": {"molecular_target": "Kappa-type opioid receptor (Homo sapiens, UniProt P41145)", "sequence (P41145 whole entry)": "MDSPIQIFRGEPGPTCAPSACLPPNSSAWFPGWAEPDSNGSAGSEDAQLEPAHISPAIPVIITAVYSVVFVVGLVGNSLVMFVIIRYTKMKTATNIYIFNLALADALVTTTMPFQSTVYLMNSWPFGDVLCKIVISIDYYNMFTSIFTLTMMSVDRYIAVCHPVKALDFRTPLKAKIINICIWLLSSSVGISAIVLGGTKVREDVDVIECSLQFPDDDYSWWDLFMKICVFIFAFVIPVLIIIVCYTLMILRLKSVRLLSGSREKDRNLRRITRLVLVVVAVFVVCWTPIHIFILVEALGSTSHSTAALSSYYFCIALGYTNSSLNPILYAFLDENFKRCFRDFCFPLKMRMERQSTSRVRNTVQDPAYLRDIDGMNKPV", "experiment": "Displacement of [3H]U69593 from human cloned kappa opioid receptor expressed in CHO cells", "assay_type": "cell-based"}, "[4]": {"molecular_target": "Voltage-gated inwardly rectifying potassium channel KCNH2 (Homo sapiens, UniProt Q12809)", "sequence (Q12809 whole entry)": "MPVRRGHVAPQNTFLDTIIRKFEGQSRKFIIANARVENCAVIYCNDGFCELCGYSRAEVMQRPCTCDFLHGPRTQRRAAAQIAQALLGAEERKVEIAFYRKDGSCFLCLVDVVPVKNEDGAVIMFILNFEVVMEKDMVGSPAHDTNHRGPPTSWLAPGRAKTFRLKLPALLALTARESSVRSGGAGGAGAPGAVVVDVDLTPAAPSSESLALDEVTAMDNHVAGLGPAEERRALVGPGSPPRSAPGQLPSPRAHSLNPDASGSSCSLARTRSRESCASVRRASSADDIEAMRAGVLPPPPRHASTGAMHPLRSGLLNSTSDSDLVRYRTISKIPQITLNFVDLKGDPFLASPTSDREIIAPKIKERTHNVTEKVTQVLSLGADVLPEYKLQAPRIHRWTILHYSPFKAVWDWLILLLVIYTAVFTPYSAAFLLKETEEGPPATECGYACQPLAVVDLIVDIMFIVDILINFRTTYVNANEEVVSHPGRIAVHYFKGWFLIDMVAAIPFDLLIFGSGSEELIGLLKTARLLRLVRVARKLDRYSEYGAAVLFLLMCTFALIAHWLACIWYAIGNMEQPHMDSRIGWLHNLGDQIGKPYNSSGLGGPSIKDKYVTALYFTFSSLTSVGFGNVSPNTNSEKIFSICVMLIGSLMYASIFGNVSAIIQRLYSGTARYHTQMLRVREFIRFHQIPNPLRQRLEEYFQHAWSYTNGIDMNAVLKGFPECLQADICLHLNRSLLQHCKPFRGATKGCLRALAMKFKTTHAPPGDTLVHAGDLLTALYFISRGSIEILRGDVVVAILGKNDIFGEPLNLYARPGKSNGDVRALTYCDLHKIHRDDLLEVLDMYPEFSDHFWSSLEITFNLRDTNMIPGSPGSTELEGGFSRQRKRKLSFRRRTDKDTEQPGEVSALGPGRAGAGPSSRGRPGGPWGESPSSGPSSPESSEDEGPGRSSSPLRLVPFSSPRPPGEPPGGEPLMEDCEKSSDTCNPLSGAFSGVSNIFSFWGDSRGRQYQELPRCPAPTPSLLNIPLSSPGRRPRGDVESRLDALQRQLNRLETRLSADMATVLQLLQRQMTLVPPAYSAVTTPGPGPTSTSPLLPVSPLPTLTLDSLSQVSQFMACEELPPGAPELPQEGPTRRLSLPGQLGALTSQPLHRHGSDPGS", "experiment": "Displacement of [35S]MK499 from human ERG in HEK293 cell membrane"}, "[5]": {"experiment": "Metabolic stability in human liver microsomes at 1 uM after 30 mins", "assay_type": "ADME, Microsome", "settings": "read-out: Stability"}, "[6]": {"experiment": "Metabolic stability in rat liver microsomes at 1 uM after 30 mins", "assay_type": "ADME, Microsome", "settings": "read-out: Stability"}, "[7]": {"experiment": "Antagonist activity at human ORL1 expressed in CHO cells by GTPgammaS binding assay", "assay_type": "cell-based", "settings": "read-out: I50"}, "CHO": {"system": "CHO", "experiment": "Displacement of [125I]Tyr14-NC/OFQ from human ORL1 expressed in CHO cells at 1 uM", "assay_type": "cell-based"}}}
{"smiles": "Cc1nn(-c2cccnc2)cc1CN1CCC2(CC1)OCc1ccccc12", "values": [{"measurement": "IC50", "setting": "[1]", "value": 130, "unit": "nM"}, {"measurement": "logD", "setting": "[2]", "value": 3.2}]}
{"smiles": "Cc1cccnc1-n1cc(CN2CCC3(CC2)OCc2ccccc23)c(C)n1", "values": [{"measurement": "IC50", "setting": "Mu-type opioid receptor", "value": 4400, "unit": "nM"}, {"measurement": "IC50", "setting": "[3]", "value": "> 10000", "unit": "nM"}, {"measurement": "IC50", "setting": "[4]", "value": 13000, "unit": "nM"}, {"measurement": "remaining at 0.5 h, 1 µM", "setting": "[5]", "value": 64, "unit": "%"}, {"measurement": "remaining at 0.5 h, 1 µM", "setting": "[6]", "value": 1, "unit": "%"}, {"measurement": "IC50", "setting": "[1]", "value": 2.6, "unit": "nM"}, {"measurement": "IC50", "setting": "[7]", "value": 2.6, "unit": "nM"}, {"measurement": "logD", "setting": "[2]", "value": 2.7}]}
{"smiles": "c1ccc(-c2nc(CN3CCC4(CC3)OCc3ccccc34)cs2)cc1", "values": [{"measurement": "inhibition", "setting": "CHO", "value": 3, "unit": "%"}, {"measurement": "IC50", "setting": "[1]", "value": "> 1000", "unit": "nM"}]}
{"smiles": "c1ccc(-n2cc(CN3CCC4(CC3)OCc3ccccc34)cn2)cc1", "values": [{"measurement": "IC50", "setting": "[1]", "value": 40, "unit": "nM"}]}
{"smiles": "Cc1nn(-c2ncccc2NS(C)(=O)=O)cc1CN1CCC2(CC1)OCc1ccccc12", "values": [{"measurement": "IC50", "setting": "[1]", "value": 11, "unit": "nM"}, {"measurement": "logD", "setting": "[2]", "value": 2.1}]}
{"smiles": "Cc1nn(-c2ccccc2Cl)cc1CN1CCC2(CC1)OCc1ccccc12", "values": [{"measurement": "IC50", "setting": "[1]", "value": 0.65, "unit": "nM"}, {"measurement": "IC50", "setting": "[7]", "value": 0.87, "unit": "nM"}, {"measurement": "logD", "setting": "[2]", "value": 3.7}]}
{"smiles": "c1cncc(-c2ccccc2CN2CCC3(CC2)OCc2ccccc23)c1", "values": [{"measurement": "inhibition", "setting": "CHO", "value": 31, "unit": "%"}, {"measurement": "IC50", "setting": "[1]", "value": "> 1000", "unit": "nM"}]}
{"smiles": "c1cc(CN2CCC3(CC2)OCc2ccccc23)cc(-c2ccncc2)c1", "values": [{"measurement": "inhibition", "setting": "CHO", "value": 18, "unit": "%"}, {"measurement": "IC50", "setting": "[1]", "value": "> 1000", "unit": "nM"}]}
{"smiles": "Cc1nn(-c2cccc(Cl)n2)cc1CN1CCC2(CC1)OCc1ccccc12", "values": [{"measurement": "IC50", "setting": "[1]", "value": 43, "unit": "nM"}, {"measurement": "logD", "setting": "[2]", "value": 3.9}]}
{"smiles": "Cc1c(CN2CCC3(CC2)OCc2ccccc23)cnn1-c1ccccc1", "values": [{"measurement": "IC50", "setting": "[1]", "value": 100, "unit": "nM"}]}
{"smiles": "c1ccc(-c2cccc(CN3CCC4(CC3)OCc3ccccc34)c2)nc1", "values": [{"measurement": "IC50", "setting": "[1]", "value": 310, "unit": "nM"}]}
{"smiles": "c1ccc(-n2nccc2CN2CCC3(CC2)OCc2ccccc23)cc1", "values": [{"measurement": "inhibition", "setting": "CHO", "value": -2, "unit": "%"}, {"measurement": "IC50", "setting": "[1]", "value": "> 1000", "unit": "nM"}]}
{"smiles": "Cc1nn(-c2ncccc2Cl)cc1CN1CCC2(CC1)OCc1ccccc12", "values": [{"measurement": "IC50", "setting": "Mu-type opioid receptor", "value": 7400, "unit": "nM"}, {"measurement": "IC50", "setting": "[3]", "value": "> 10000", "unit": "nM"}, {"measurement": "remaining at 0.5 h, 1 µM", "setting": "[5]", "value": 60, "unit": "%"}, {"measurement": "remaining at 0.5 h, 1 µM", "setting": "[6]", "value": 6, "unit": "%"}, {"measurement": "IC50", "setting": "[1]", "value": 4.5, "unit": "nM"}, {"measurement": "IC50", "setting": "[7]", "value": 2.7, "unit": "nM"}, {"measurement": "logD", "setting": "[2]", "value": 3.1}]}
{"smiles": "c1cncc(-c2ccc(CN3CCC4(CC3)OCc3ccccc34)cc2)c1", "values": [{"measurement": "inhibition", "setting": "CHO", "value": 15, "unit": "%"}, {"measurement": "IC50", "setting": "[1]", "value": "> 1000", "unit": "nM"}]}
{"smiles": "Cc1nn(-c2ccccc2)c(C)c1CN1CCC2(CC1)OCc1ccccc12", "values": [{"measurement": "IC50", "setting": "[1]", "value": 13, "unit": "nM"}]}
{"smiles": "Cc1nn(-c2ccccc2)cc1CN1CCC2(CC1)OCc1ccccc12", "values": [{"measurement": "IC50", "setting": "Mu-type opioid receptor", "value": 3200, "unit": "nM"}, {"measurement": "IC50", "setting": "[3]", "value": 9700, "unit": "nM"}, {"measurement": "remaining at 0.5 h, 1 µM", "setting": "[5]", "value": 28, "unit": "%"}, {"measurement": "remaining at 0.5 h, 1 µM", "setting": "[6]", "value": 4, "unit": "%"}, {"measurement": "IC50", "setting": "[1]", "value": 6.9, "unit": "nM"}, {"measurement": "IC50", "setting": "[7]", "value": 1.6, "unit": "nM"}, {"measurement": "logD", "setting": "[2]", "value": "> 4"}]}
{"smiles": "Cc1nn(-c2cnccn2)cc1CN1CCC2(CC1)OCc1ccccc12", "values": [{"measurement": "IC50", "setting": "[1]", "value": 200, "unit": "nM"}, {"measurement": "logD", "setting": "[2]", "value": 3.5}]}
{"smiles": "c1ccc(-c2csc(CN3CCC4(CC3)OCc3ccccc34)n2)cc1", "values": [{"measurement": "inhibition", "setting": "CHO", "value": -7, "unit": "%"}, {"measurement": "IC50", "setting": "[1]", "value": "> 1000", "unit": "nM"}]}
{"smiles": "Cc1nn(-c2ncccn2)cc1CN1CCC2(CC1)OCc1ccccc12", "values": [{"measurement": "IC50", "setting": "[1]", "value": 93, "unit": "nM"}, {"measurement": "logD", "setting": "[2]", "value": 2.9}]}
{"smiles": "c1cncc(-c2cccc(CN3CCC4(CC3)OCc3ccccc34)c2)c1", "values": [{"measurement": "inhibition", "setting": "CHO", "value": 45, "unit": "%"}, {"measurement": "IC50", "setting": "[1]", "value": "> 1000", "unit": "nM"}]}
{"smiles": "CC(C)(C)c1nn(-c2ccccc2)cc1CN1CCC2(CC1)OCc1ccccc12", "values": [{"measurement": "IC50", "setting": "[1]", "value": 59, "unit": "nM"}]}
{"smiles": "c1ccc(-n2cc(CN3CCC4(CC3)OCc3ccccc34)nn2)cc1", "values": [{"measurement": "IC50", "setting": "[1]", "value": 190, "unit": "nM"}]}
{"smiles": "CC(=O)Nc1cccnc1-n1cc(CN2CCC3(CC2)OCc2ccccc23)c(C)n1", "values": [{"measurement": "IC50", "setting": "[1]", "value": 27, "unit": "nM"}, {"measurement": "logD", "setting": "[2]", "value": 3.2}]}
{"smiles": "CCc1nn(-c2ccccc2)cc1CN1CCC2(CC1)OCc1ccccc12", "values": [{"measurement": "IC50", "setting": "[1]", "value": 9.4, "unit": "nM"}, {"measurement": "IC50", "setting": "[7]", "value": 8.4, "unit": "nM"}]}
{"smiles": "Cc1nn(-c2ccccc2)nc1CN1CCC2(CC1)OCc1ccccc12", "values": [{"measurement": "inhibition", "setting": "CHO", "value": 36, "unit": "%"}, {"measurement": "IC50", "setting": "[1]", "value": "> 1000", "unit": "nM"}]}
{"smiles": "Cc1nn(-c2ccc(Cl)cn2)cc1CN1CCC2(CC1)OCc1ccccc12", "values": [{"measurement": "IC50", "setting": "[1]", "value": 280, "unit": "nM"}, {"measurement": "logD", "setting": "[2]", "value": 3.5}]}
{"smiles": "CNC(=O)c1cccnc1-n1cc(CN2CCC3(CC2)OCc2ccccc23)c(C)n1", "values": [{"measurement": "IC50", "setting": "[1]", "value": 22, "unit": "nM"}, {"measurement": "logD", "setting": "[2]", "value": 1.4}]}
{"smiles": "Cc1nn(-c2ccccn2)cc1CN1CCC2(CC1)OCc1ccccc12", "values": [{"measurement": "IC50", "setting": "[1]", "value": 12, "unit": "nM"}, {"measurement": "IC50", "setting": "[7]", "value": 16, "unit": "nM"}, {"measurement": "logD", "setting": "[2]", "value": 3.1}]}
{"smiles": "Cc1ccnc(-n2cc(CN3CCC4(CC3)OCc3ccccc34)c(C)n2)c1", "values": [{"measurement": "IC50", "setting": "[1]", "value": 19, "unit": "nM"}, {"measurement": "IC50", "setting": "[7]", "value": 45, "unit": "nM"}, {"measurement": "logD", "setting": "[2]", "value": 3.2}]}
{"smiles": "c1ccc(Cc2nn(-c3ccccc3)cc2CN2CCC3(CC2)OCc2ccccc23)cc1", "values": [{"measurement": "IC50", "setting": "[1]", "value": 30, "unit": "nM"}]}
{"smiles": "Cc1nn(-c2ccncc2)cc1CN1CCC2(CC1)OCc1ccccc12", "values": [{"measurement": "IC50", "setting": "[1]", "value": 820, "unit": "nM"}, {"measurement": "logD", "setting": "[2]", "value": 3.7}]}
{"smiles": "Cc1nn(-c2c(Cl)cccc2NS(C)(=O)=O)cc1CN1CCC2(CC1)OCc1ccccc12", "values": [{"measurement": "IC50", "setting": "Mu-type opioid receptor", "value": "> 10000", "unit": "nM"}, {"measurement": "IC50", "setting": "[3]", "value": "> 10000", "unit": "nM"}, {"measurement": "IC50", "setting": "[4]", "value": 17000, "unit": "nM"}, {"measurement": "remaining at 0.5 h, 1 µM", "setting": "[5]", "value": 54, "unit": "%"}, {"measurement": "remaining at 0.5 h, 1 µM", "setting": "[6]", "value": 69, "unit": "%"}, {"measurement": "IC50", "setting": "[1]", "value": 1.9, "unit": "nM"}, {"measurement": "IC50", "setting": "[7]", "value": 0.53, "unit": "nM"}, {"measurement": "logD", "setting": "[2]", "value": 2.1}]}
{"smiles": "CC(C)c1nn(-c2ccccc2)cc1CN1CCC2(CC1)OCc1ccccc12", "values": [{"measurement": "IC50", "setting": "[1]", "value": 21, "unit": "nM"}]}
